Assay results reported in publication doi:10.1101/2025.03.14.643351, “Dissection of amino acid acquisition pathways in Borrelia burgdorferi uncovers unique physiological responses” (bioRxiv, 2025).

Molecular target: T1, BB0401 (GltPBb) (Borreliella burgdorferi, UniProt O51362)
T1 construct: gene BB_0401; full-length bb0401 ORF, IPTG-inducible from shuttle vector pibb0401 in chromosomal bb0401-deleted B. burgdorferi (bb0401^cond); intact cells; no tag mentioned
Experiment: heavy-isotope uptake into conditional mutant with and without IPTG, LC-MS/MS
Type: cell-based
Details: BSK-II medium with unlabelled amino acids, 37 C, 2 h or 6 h uptake after 48 h or 7 d without inducer

T1 sequence (O51362 entry or part of it): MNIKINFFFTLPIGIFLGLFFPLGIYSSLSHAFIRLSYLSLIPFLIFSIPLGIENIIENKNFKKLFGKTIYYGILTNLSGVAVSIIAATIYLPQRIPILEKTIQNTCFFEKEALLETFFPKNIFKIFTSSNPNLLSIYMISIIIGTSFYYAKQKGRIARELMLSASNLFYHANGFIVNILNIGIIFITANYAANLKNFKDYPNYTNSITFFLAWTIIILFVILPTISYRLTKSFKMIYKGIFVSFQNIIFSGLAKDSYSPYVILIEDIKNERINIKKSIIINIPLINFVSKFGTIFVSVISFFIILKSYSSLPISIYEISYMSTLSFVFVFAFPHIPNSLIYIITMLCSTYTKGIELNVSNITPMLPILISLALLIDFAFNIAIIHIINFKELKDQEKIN

SMILES | heavy-isotope uptake into conditional mutant with and without IPTG, LC-MS/MS (labelled compound (13C5,15N1), 86.2 mg/L) | heavy-isotope uptake into conditional mutant with and without IPTG, LC-MS/MS (labelled compound (13C4,15N1), 30 mg/L)
N[C@@H](CCC(=O)O)C(=O)O [heavy glutamate (^13C5,^15N1)] | more dramatic reduction in the amount of heavy labeled aspartate and glutamate imported | –
N[C@@H](CC(=O)O)C(=O)O [heavy aspartate (^13C4,^15N1)] | – | more dramatic reduction in the amount of heavy labeled aspartate and glutamate imported
